EP4663640A1 (Shanghai Institute of Materia Medica, Chinese Academy of …, priority 2023, dated 2024)
Where two headings read alike, the source gives them in different places.

What was measured:
hTRPC5 [1] = target: T1, hTRPC5 (Homo sapiens, UniProt Q9UL62); assay: TRPC5 agonist activity assay (FLIPR calcium fluorescence); type: cell-based; details: Table 2, agonist activity on TRPC5 channels
T1 construct: expressed in transfected cells; host or cells: HEK-293
T1 sequence (Q9UL62 1-973): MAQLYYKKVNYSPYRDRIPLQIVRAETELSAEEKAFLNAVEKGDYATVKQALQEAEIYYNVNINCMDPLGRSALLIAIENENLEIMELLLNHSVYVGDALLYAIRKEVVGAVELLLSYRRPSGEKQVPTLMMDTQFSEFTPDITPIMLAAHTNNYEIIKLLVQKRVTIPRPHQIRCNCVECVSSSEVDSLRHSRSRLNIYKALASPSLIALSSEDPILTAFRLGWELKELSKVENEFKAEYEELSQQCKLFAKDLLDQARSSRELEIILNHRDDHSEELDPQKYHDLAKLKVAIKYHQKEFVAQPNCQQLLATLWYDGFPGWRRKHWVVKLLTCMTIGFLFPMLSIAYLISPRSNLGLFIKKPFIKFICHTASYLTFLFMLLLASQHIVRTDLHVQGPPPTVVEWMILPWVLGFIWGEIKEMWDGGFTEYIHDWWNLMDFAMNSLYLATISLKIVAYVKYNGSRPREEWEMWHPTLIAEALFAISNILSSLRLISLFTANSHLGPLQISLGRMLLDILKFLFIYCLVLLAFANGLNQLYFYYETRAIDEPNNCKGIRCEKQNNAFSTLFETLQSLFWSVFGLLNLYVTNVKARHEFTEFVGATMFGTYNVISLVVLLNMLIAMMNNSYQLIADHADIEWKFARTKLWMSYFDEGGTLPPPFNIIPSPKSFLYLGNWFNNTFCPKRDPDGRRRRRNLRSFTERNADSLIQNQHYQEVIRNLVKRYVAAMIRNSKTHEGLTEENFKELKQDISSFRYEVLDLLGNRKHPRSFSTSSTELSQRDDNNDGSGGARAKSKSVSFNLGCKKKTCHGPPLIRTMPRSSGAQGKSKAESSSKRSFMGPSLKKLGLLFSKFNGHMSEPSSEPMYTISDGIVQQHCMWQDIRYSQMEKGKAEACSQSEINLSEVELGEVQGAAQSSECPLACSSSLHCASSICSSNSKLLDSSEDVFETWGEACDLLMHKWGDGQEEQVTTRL
Method: HEK-293 cells expressing hTRPC5 were seeded into PDL-coated black-walled 96-well plates, with 2×10^4 cells per well. After 8 hours of culture, the original culture medium was discarded, and 60 µL of 4 µM Fluo-4/AM dye was added immediately. The cells were incubated at 37 °C for 60 minutes, and then rinsed with calcium flow detection buffer 5 times. The cell plates were placed in FLIPR®TETRA (Molecular Devices, Sunnyvale, CA, USA) preheated at 30 °C, excited at a wavelength of 488 nm, and the fluorescence signals were continuously recorded in the range of 515-535 nm with a sampling frequency of 1 s. After recording for 360 seconds, solvent control and test compounds were added, and the fluorescence signal was collected for another 600 seconds. The fluorescence signal of the trajectory diagram is represented by F/F0, wherein F is the fluorescence signal at different time points, and F0 is the basic fluorescence signal, that is, the average value of the fluorescence signal at the first 10 time points. The dose-effect diagram first took F/F0 =1 as the baseline. The area under the curve of the change in fluorescence intensity after adding test compound was calculated. IC50 value was calculated using log[agonist] vs. response - Variable slope, taking into account the area under the curve and the log value of the concentration of the compound.

hTRPC5 [2] = target: T1, hTRPC5; assay: TRPC5 inhibitory activity assay (FLIPR calcium fluorescence, Englerin A stimulation); type: cell-based
Method: HEK-293 cells expressing hTRPC3, hTRPC4 or hTRPC5 were seeded into black-bottomed 96-well plates coated with poly-lysine (PDL), with 2×10^4 cells per well. After 8 h of culture, the original culture medium was discarded, and 60 µL of Fluo-4/AM dye with a final concentration of 4 µM was added. The plates were incubated at 37 °C for 60 min, and then rinsed five times with calcium flow detection buffer. […] Then, the agonist Englerin A (EA) (MedChemExpress, Shanghai, China, final concentration of 0.3nM) was added, and the fluorescence signal was collected for 600 seconds. The fluorescence signal of the trajectory diagram is represented by F/F0, wherein F is the fluorescence signal at different time points, and F0 is the basic fluorescence signal, that is, the average value of the fluorescence signal at the first 10 time points. […] The area under the curve of the change in fluorescence intensity after adding EA was calculated. IC50 value was calculated using log[Inhibitor] vs. response - Variable slope, taking into account the area under the curve and the log value of the concentration of the compound.

hERG channel = target: T2, hERG channel (Homo sapiens, UniProt Q12809); assay: hERG channel inhibition assay (Qpatch whole-cell recording, CHO cells expressing hERG); type: cell-based; details: Table 3; highest test concentration 40 µM; read-out: inhibitory activity IC50 hERG
T2 construct: expressed in transfected cells; host or cells: CHO
T2 sequence (Q12809 whole entry): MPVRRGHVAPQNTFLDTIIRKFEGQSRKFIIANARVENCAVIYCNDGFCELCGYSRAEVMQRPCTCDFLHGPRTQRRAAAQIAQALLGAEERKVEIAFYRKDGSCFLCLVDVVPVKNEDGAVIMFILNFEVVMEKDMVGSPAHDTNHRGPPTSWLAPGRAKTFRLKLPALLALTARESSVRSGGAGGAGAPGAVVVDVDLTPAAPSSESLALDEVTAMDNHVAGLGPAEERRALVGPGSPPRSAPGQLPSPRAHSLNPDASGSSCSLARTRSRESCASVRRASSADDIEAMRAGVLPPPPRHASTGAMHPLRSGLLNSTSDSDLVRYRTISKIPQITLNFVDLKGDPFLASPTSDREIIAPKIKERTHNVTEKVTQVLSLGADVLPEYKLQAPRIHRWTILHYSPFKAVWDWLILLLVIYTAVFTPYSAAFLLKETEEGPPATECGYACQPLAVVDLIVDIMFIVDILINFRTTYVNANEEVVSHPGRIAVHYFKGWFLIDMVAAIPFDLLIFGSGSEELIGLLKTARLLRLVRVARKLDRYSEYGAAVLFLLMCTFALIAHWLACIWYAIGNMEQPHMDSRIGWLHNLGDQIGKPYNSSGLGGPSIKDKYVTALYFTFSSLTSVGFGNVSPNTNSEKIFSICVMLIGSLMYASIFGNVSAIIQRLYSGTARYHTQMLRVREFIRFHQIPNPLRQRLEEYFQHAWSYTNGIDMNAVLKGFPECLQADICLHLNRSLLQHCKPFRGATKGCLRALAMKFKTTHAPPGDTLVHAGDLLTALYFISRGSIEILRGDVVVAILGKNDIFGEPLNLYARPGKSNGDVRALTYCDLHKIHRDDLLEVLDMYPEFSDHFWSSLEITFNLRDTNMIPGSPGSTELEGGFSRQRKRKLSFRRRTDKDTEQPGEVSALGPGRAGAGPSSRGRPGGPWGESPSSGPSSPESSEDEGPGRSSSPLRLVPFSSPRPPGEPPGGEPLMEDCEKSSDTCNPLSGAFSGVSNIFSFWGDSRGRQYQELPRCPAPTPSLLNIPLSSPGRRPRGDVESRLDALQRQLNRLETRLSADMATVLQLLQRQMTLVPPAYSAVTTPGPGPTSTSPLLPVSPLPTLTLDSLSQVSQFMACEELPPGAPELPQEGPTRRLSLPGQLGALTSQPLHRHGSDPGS
Method: (§1) CHO cells expressing hERG protein were cultured in 175cm^2 culture flasks. When the cell density grew to 60-80%, the culture medium was removed, and the cells were washed with 7mL PBS, and then 3mL Detachin was added for digestion. After digestion was complete, 7mL culture medium was added for neutralization, and then centrifuged, the supernatant was aspirated, and 5mL culture medium was added for resuspending to ensure that the cell density was 2-5×10^6/mL.
(§2) The single-cell high-impedance sealing and whole-cell pattern formation process were all automatically completed by the Qpatch instrument. After obtaining the whole-cell recording mode, the cell was clamped at -80 mV. […] This voltage stimulus was applied every 15 seconds. After recording for 2 minutes, the extracellular solution was recorded for 2 minutes, and then the drug administration process began. The compound concentration started from the lowest test concentration, and each test concentration was given for 2 minutes. After all concentrations were given continuously, the positive control compound 10 µM Cisapride was given. At least 3 cells (n≥3) were tested for each concentration.
(§3) The stock solution of compound was diluted with extracellular solution, 5 µL of 20 mM compound stock solution was added to 2495 µL of extracellular solution, 500 times diluted to 40 µM, and then 3 times serial dilution was performed in the extracellular solution containing 0.2% DMSO to obtain the final concentration to be tested.
(§4) (5) Data analysis: The experimental data were analyzed by XLFit software.

[3] = target: T3, hERG channel (relative to TRPC5) (Homo sapiens, UniProt Q12809); assay: as above; type: cell-based; details: human, CHO cells expressing hERG; ratio of IC50 values
T3 construct: expressed in transfected cells; host or cells: CHO
T3 sequence (Q12809 whole entry): as above
Method: as §1, §2, §3, §4

[4] = Preliminary pharmacokinetic evaluation, plasma drug concentration after oral administration to mice; type: in vivo, ICR mice; details: oral 10 mg/kg, Mean ± SD, N = 3
Method: The test compound was prepared according to the following solvent: an aqueous solution of DMSO/Tween 80/0.5% (m/v) CMC-Na at a ratio of 2:2:96 (v/v/v), with a drug concentration of 1 mg/mL. Then, the test compound was gavaged to mice at a dosage of 10 mL/kg, with a dose of 10 mg/kg. Each compound was administered to 3 mice. At 1h and 4h after administration, about 50 µL of blood was collected from the orbital venous plexus of the mouse and placed in a centrifuge tube containing EDTA-K2 anticoagulant.

mice [5] = assay: Marble burial test (antianxiety); type: in vivo; details: before versus after administration (Figure 3)
Method: (§5) The drug to be tested was dissolved in DMSO: Tween 80: distilled water at a ratio of 2:2:96 (v/v/v), and then administered to mice by gavage at a volume of 10 mL/kg. […] The blank control group was only given 10 mL/kg of the above solvent.
The mouse marble burial test is a behavioral assay used for the screening of antianxiety drugs. It exploits the natural digging behavior of mice in environments such as burrows or escape tunnels and is sensitive to small changes in behavior caused by genetic manipulation, disease, or drug treatment.
A 5cm thick sawdust litter was laid in a 33 cm×24 cm×28 cm carton, and 4×5 black marbles (4 cm apart) with a total of 20 black marbles of 14mm in diameter were neatly placed on the litter. The mouse was put into the carton facing the corner for 30 minutes. After 30 minutes, the mouse was carefully taken out and the number of marbles buried by the mouse was counted. If more than 2/3 of the marble was buried, it was considered a whole marble. First, a blank experiment was conducted. Before the experiment, the mouse was taken to the experimental environment to adapt. After 1 hour, the experiment began. After the experiment, the mouse was returned to the cage and the number of marbles buried by the mouse was counted. On the second day, the mouse was taken to the experimental environment to adapt for 1 hour before the drug was administered. After the drug administration, the marble burying experiment was conducted for […]. After the experiment, the mouse was carefully taken out and returned to the cage to prevent the mouse from escaping violently and affecting the experimental results. After counting, the black marbles were taken out and wiped with alcohol, and the litter was turned over again to remove the smell of the previous mouse to prevent it from affecting the experiment of the next mouse. The marbles were neatly placed for the experiment of the next mouse.

mice [6] = assay: Tail suspension test (antidepression); type: in vivo; details: before versus after administration (Figure 4)
Method: as §5
The mouse tail suspension test (TST) is a widely used experimental method to evaluate the effectiveness of antidepressants and other psychotropic drugs. The principle of the test is to suspend a mouse by its tail and observe its behavior. The mouse will initially struggle to escape, but when it realizes that escape is impossible, it will eventually stop struggling and enter a state of immobility that indicates despair. This immobility behavior is used to measure depression-like states, and the severity of the condition is assessed by recording the duration of immobility.
The same mouse was subjected to the tail suspension test immediately after the marble burying test. A tail suspension test box was built using a black frosted acrylic board, 55 cm high, 15 cm long, and 11.5 cm wide. The three sides and top of the box were frosted blackboards, and one side was used for video recording. The mouse tail was wrapped with yellow tape 2 cm away from the tip of the tail, and the mouse was hung upside down in the middle of the top acrylic board. The tip of the mouse tail was about 3 cm away from the acrylic board, and the body was suspended and could not touch the surrounding board wall. The test time for each mouse lasted for 6 minutes, and the immobility time of the mouse during this time was counted. After the experiment, the mouse was returned to the cage, and the inside of the box and the table were wiped with alcohol to remove the smell of the previous mouse to prevent affecting the next mouse experiment. The criteria for immobility in the tail suspension test: stop struggling, no flexion or twisting of the body, no swinging of the hind limbs, and slight swinging of the forelimbs and head were also counted as immobility time.

[7] = Liver microsome stability test, mouse; type: in vitro ADME; details: Mouse liver microsomes
Source text: Calculation of Intrinsic Clearance: Clint = (1000 × slope)/(P); [formula]

SMILES: CC(C)C1CCC(F)(c2nc3c(c(=O)n(CCCO)c(=O)n3C)n2Cc2ccc(Cl)cc2)CC1 (stereo not shown) [Example E31, 7-(4-chlorobenzyl)-8-(1-fluoro-4-isopropylcyclohexyl)-1-(3-hydroxypropyl)-3-methyl-3,7-dihydro-1H-purine-2,6-dione]
- EC50 (hTRPC5 [1]): 102 nM

SMILES: Cn1c(=O)n(CCCO)c(=O)c2c1nc(C1=CCC(F)(F)CC1)n2Cc1ccc(Cl)cc1 [Example E37, 7-(4-chlorobenzyl)-8-(4,4-difluorocyclohex-1-en-1-yl)-1-(3-hydroxypropyl)-3-methyl-3,7-dihydro-1H-purine-2,6-dione]
- EC50 (hTRPC5 [1]): 100 to 200 nM

SMILES: Cn1c(=O)n(CCCO)c(=O)c2c1nc(C1(F)CCC(c3ccccc3)CC1)n2Cc1ccc(Cl)cc1 (stereo not shown) [Example E54, 7-(4-chlorobenzyl)-8-(1-fluoro-4-phenylcyclohexyl)-1-(3-hydroxypropyl)-3-methyl-3,7-dihydro-1H-purine-2,6-dione]
- EC50 (hTRPC5 [1]): 170 nM

SMILES: Cn1c(=O)n(CCCO)c(=O)c2c1nc(C1(F)CCC(N3CCCC3)CC1)n2Cc1ccc(Cl)cc1 (stereo not shown) [Example E55, 7-(4-chlorobenzyl)-8-(1-fluoro-4-(pyrrolidin-1-yl)cyclohexyl)-1-(3-hydroxypropyl)-3-methyl-3,7-dihydro-1H-purine-2,6-dione]
- EC50 (hTRPC5 [1]): 700 nM

SMILES: Cn1c(=O)n(CCCO)c(=O)c2c1nc(C1(F)CCC(F)(F)CC1)n2Cc1ccc(C(F)(F)F)cc1 [Example E60, 1-(3-hydroxypropyl)-3-methyl-8-(1,4,4-trifluorocyclohexyl)-7-(4-(trifluoromethyl)benzyl)-3,7-dihydro-1H-purine-2,6-dione]
- IC50 (hTRPC5 [2]; Table 1, TRPC5 channels, HEK-293 cells expressing hTRPC5, read-out: FLIPR IC50): 6.87 nM
- IC50 (hTRPC5 [2]; Table 3, read-out: inhibitory activity IC50 TRPC5): 6.9 nM
- IC50 (hERG channel): 13300 nM
- selectivity ratio at 2 min [3]: 1940
- concentration at 1 h ([4]; male, ICR, mouse, 1h): 1310 ± 45 ng/mL
- concentration at 4 h ([4]; male, ICR, mouse, 4h): 1180 ± 163 ng/mL

SMILES: CNCCC(Oc1ccc(C(F)(F)F)cc1)c1ccccc1 (stereo not shown) [Fluoxetine, reference compound]
- number of marbles buried by mice (mice [5]; oral 10 mg/kg): significantly reduced
- immobility time of mice (mice [6]; oral 10 mg/kg): significantly reduced

SMILES: Cn1c(=O)n(CCCO)c(=O)c2c1nc(Oc1cccc(Cl)c1)n2Cc1ccc(Cl)cc1 [HC-070, reference compound]
- number of marbles buried by mice (mice [5]; oral 1 mg/kg): significantly reduced
- Stability Evaluation [7]: Worse (MF%<30%, worse metabolic stability)
- MF % ([7]; metabolic bioavailability): 19.8%
- half-life ([7]; pH 7.4, 1µM compound, read-out: Half-life T1/2): 11.7 min
- immobility time of mice (mice [6]; oral 1 mg/kg): significantly reduced
- drug concentration 1h ([4]; 1h): 802 ± 164 ng/mL
- drug concentration 4h ([4]; 4h): 398 ± 57 ng/mL
